# In patent US20120121745A1, “AGENTS FOR THE CONTROL OF […]” (MARRONE BIO INNOVATIONS, INC., priority 2010, published 2012):
# System: quagga mussels
# Assay: Molluscicidal effects of compounds isolated from Pseudomonas broth (live mussel jar-test bioassay, procedures of US 20100266717)
# Assay type: in vivo
# Settings: Conc 16 μg/ml
# Procedure: The culture broth derived from the 10-L fermentation P. fluorescens in FM2-growth media is first centrifuge to separate the cells pellet and supernatant. The supernatant and the cell pellet were extracted separately using Amberlite XAD-7 resin (Asolkar et al., 2006) by shaking the cell suspension/supernatant with resin at 225 rpm for two hours at room temperature. The resin and cell mass are collected by filtration through cheesecloth and washed with DI water to remove salts. The resin, cell mass, and cheesecloth are then soaked for 2 h in acetone/methanol (50/50) after which the acetone/methanol is filtered and dried under vacuum using rotary evaporator to give two separate crude extract.(one for supernatant and other for cell pellets). The crude extracts were then fractionated separately by using reversed-phase C18 vacuum liquid chromatography (H2O/CH3OH; gradient […] to 0:100%) to give 7 fractions. These fractions are then concentrated to dryness using rotary evaporator and the resulting dry residues are screened for biological activity using both a live mussel jar-test bioassay with quagga mussels as well as a cell-based assay with a freshwater snail embryo cell line (Biomphalaria glabrata). The active fractions are then subjected to reversed phase HPLC (Spectra System P4000 (Thermo Scientific) to give pure compounds, which are then screened in above mentioned bioassays to locate/identify the active compounds. To confirm the identity of the compound, additional spectroscopic data such as LC/MS and NMR is recorded.
# The potency of compounds isolated from Pseudomonas broth is tested using procedures described in the US Patent Application Pub. No. 20100266717.
structure (smiles),measurement,value
"CCCCCC[C@@H](O)C/C=C\CCCCCCCC(=O)O [Ricinoleic acid, ricinoleic acid]",% mortality 24 hr,20 ± 0%
same,% mortality 48 hr,20 ± 0%
same,% mortality 72 hr,20 ± 0%
same,% mortality 96 hr,20 ± 0%
CCCCCC/C=C/CCCCCCCC(=O)O [9-hexadecenoic acid],% mortality 24 hr,20 ± 14.1%
same,% mortality 48 hr,25.5 ± 7.1%
same,% mortality 72 hr,30 ± 14.1%
same,% mortality 96 hr,30 ± 14.1%
